In US20220023317A1, “PREVENTING OR MITIGATING CHEMOTHERAPY INDUCED ALOPECIA USING VITAMIN D” (Berg LLC, priority 2013, published 2022):

Key:
Long Evans Rats = test: Alopecia in chloroleukemic Long Evans rats receiving multi-course chemotherapy; type: in vivo, rat; details: CTX
Text: Animals were then randomized in four groups.
Treatments were started on day 6 after birth.
Unused preparations were disposed of.

[1] = tested on: Long Evans and Sprague Dawley rats; details: CTX 37.5 mg/kg once i.p.
Method: Specifically, Long Evans and Sprague Dawley rats with pups were purchased from Harlan Laboratories, Inc. They were housed and fed according to applicable animal handling rules and regulations. Pups were allowed to acclimate for 48 hours prior to the start of experiments. […] Rats were isolated from their littermates and mother for 6-hour periods of time. Subsequently, the treated area was cleaned with soap and water and pups were returned to their litters. On day 13, rats either received etoposide (1.5 mg/kg daily for 3 days) or cyclophosphamide (CTX) (37.5 mg/kg once) or combination cyclophosphamide (35 mg/kg once) and doxorubicin (2.5 mg/kg daily for 3 days). All chemotherapies were purchased from Sigma and were given intraperitoneally (i.p.) in a total volume of 0.1 mL. Alopecia was recorded 10 days after the last dose of chemotherapy.

MIAC51 = test: Cure / survival rate of chloroleukemic rats after chemotherapy; type: in vivo, rat; details: CTX, after two rounds of chemotherapy
Method: On day 5 after birth all rats received 1×105 MIAC51 intraperitoneally in 0.1 mL of serum free (SF) RPMI. MIAC51 were cultured in RPMI 1640 supplemented with L-glutamine and 10% fetal bovine serum at […] in a 5% CO2, 100% humidity incubator. Cells were grown to 50% confluency (1.5×106 mL) collected in 50 mL conical tubes, centrifuged at 600 g for 10 minutes at room temperature and resuspended in SF-RPMI at a concentration of 1×10^6/mL prior to injection.

How did the “extent of alopecia (grade)” value (Long Evans Rats; first round of chemotherapy, all rats) turn out when `O=P1(N(CCCl)CCCl)NCCCO1` (stereo not drawn) [CTX] was run?
Its value is “+4”.

And the “rats with alopecia grade 4+ (number)” value (Long Evans Rats; first round, 4+ = 75-100% alopecia, of 40)?
The value was 40.

What about the “rats with alopecia grade 4+ (number)” value (Long Evans Rats; second round, of 8) of the same molecule?
The value was 8.

What about the “alopecia in control rats that received cyclophosphamide” value [1] of the same molecule?
Its value is “totally alopecic”.

And the “% cured / survival rate” value (MIAC51)?
The value was 20%.

And the “Cured (number of rats)” value (MIAC51; of 40)?
Its value is 8.
